Laboratory results from EP3741762A1, “OXALAMIDO-SUBSTITUTED TRICYCLIC INHIBITORS OF HEPATITIS B VIRUS” (priority 2019, dated 2020).

These compounds were tested on HBV (assay: Anti-HBV activity in vitro: quantification of extracellular HBV DNA by direct qPCR in HepAD38 cells). Conditions: Hepatitis B virus, tetracycline-free medium, 96 hours at 37°C, reported as EC50 threshold value, read-out: HBV inh EC50.
Type: cell-based
Source text: HepAD38 cell line (Ladner et al., Antimicrob Agents Chemother, 1997, 41, 1715-20) was used for HBV inhibition assays. HepAD38 is a subclone, derived from Hepatoblastoma cell line HepG2 (ATCC® Number: HB-8065™), that expresses HBV genome under the transcriptional control of a tetracycline-responsive promoter in a TET-OFF system: addition of tetracycline (TET) or doxycycline suppresses HBV replication, while its removal switches on the process allowing HBV viral particles release in the cell supernatant. HepAD38 cell line is maintained in DMEM/F12, supplemented with 10% of fetal bovine serum, 1% of glutamine, 1% of penicillin/streptomycin, 0.4 mg/ml G418 and 0,3 ug/ml tetracycline. For the HBV inhibition assay, doxycycline-free medium is used in order to allow virion production.
HBV inhibition activity in vitro was performed in 96 multiwell plates. During the initial (primary) screening, compounds were first tested in triplicates at concentrations of 0.02 µM, 0.1 µM, 0.5µM and 1µM. For selected compounds, an 8-point dose-response curve was obtained using 1:2 serial dilutions (starting from 0.01µM, 0.1µM, 0.4µM or 5 µM, depending on the degree of inhibition observed during the primary screening). From the dose-response curves, half maximal effective concentration (EC50) could be calculated (see also below).
In more detail, compounds - typically dissolved in DMSO stock solutions - were diluted to 2x the final desired concentration in 100 µl of the above medium (without doxycycline) and plated in three replicates in the 96-well plates.
Simultaneously, HepAD38 cells - extensively pre-washed in tetracycline-free medium in order to induce HBV production - were suspended at 2^∗10^4 cells in 100 µl of tetracycline-free medium and added to each well of the plate, to yield a final assay volume of 200 µl DMSO - used for stock solutions and compounds dilutions - which was always present in the assays at a final concentration of 0.5%.
Plates were then incubated 96 hours at 37°C and then subjected to cell viability assays and extracellular HBV quantification, in order to evaluate both the cytotoxic potential and the antiviral activity of compounds. Cytotoxicity was assessed by a commercial fluorescence assay that measures the metabolic activity of cells, directly related to cell viability (Cell Titer Blue, Promega). Anti-HBV activity was evaluated by quantification of extracellular HBV DNA with direct qPCR. In particular, supernatant was collected and centrifuged for cell debris clarification, viral DNA was extracted from virions by addition of lysis buffer (1 mM 1,4-dithiothreitol, 0.2% sodium dodecyl sulphate) and incubated at 95°C for 10 min. Samples were then diluted 1:40 and real time PCR amplification was performed with SYBR green assay (Power SYBR™ Green PCR Master Mix-Thermo Fisher Scientific) and specific HBV primer (HBV-DF:5'-[…]-3' (SEQ ID No. 1), HBV-DR:5'-[…]-3' (SEQ ID No.2)).
Antiviral activity data for each compound are reported as EC50 threshold value (see Table 1 legend). Excel and Graphpad Prism programs are typically used for data elaboration and EC50 calculation.
`Cc1cc(NC(=O)c2c3c(cn2C)S(=O)(=O)N[C@H]2CN(C(=O)C(=O)NC4(C)CC4)C[C@H]2CS3)ccc1F` [Example E40, (3aR,10aR)-N-(4-fluoro-3-methylphenyl)-7-methyl-2-(2-((1-methylcyclopropyl)amino)-2-oxoacetyl)-2,3,3a,4,10,10a-hexahydro-1H,7H-dipyrrolo[3,4-c:3',4'-g][1,6,2]dithiazocine-8-carboxamide 5,5-dioxide] showed an EC50 of under 500 nM. In the case of `Cc1cc(NC(=O)c2c3c(cn2C)S(=O)(=O)N[C@H]2CN(C(=O)C(=O)NC4CC(F)(F)C4)C[C@H]2CS3)ccc1F` [Example E41, (3aR,10aR)-2-(2-((3,3-difluorocyclobutyl)amino)-2-oxoacetyl)-N-(4-fluoro-3-methylphenyl)-7-methyl-2,3,3a,4,10,10a-hexahydro-1H,7H-dipyrrolo[3,4-c:3',4'-g][1,6,2]dithiazocine-8-carboxamide 5,5-dioxide], the EC50 is reported as under 500 nM. `Cc1cc(NC(=O)c2c3c(cn2C)S(=O)(=O)N[C@H]2CN(C(=O)C(=O)NCC4CC4)C[C@H]2CO3)ccc1F` [Example E20, (3aR,10aR)-2-(2-((cyclopropylmethyl)amino)-2-oxoacetyl)-N-(4-fluoro-3-methylphenyl)-7-methyl-2,3,3a,4,10,10a-hexahydro-1H,7H-dipyrrolo[3,4-b:3',4'-f][1,4,5]oxathiazocine-8-carboxamide 5,5-dioxide] showed an EC50 of under 500 nM. Compound `Cc1cc(NC(=O)c2c3c(cn2C)S(=O)(=O)N[C@]2(C)CN(C(=O)C(=O)NC4CC4)C[C@@H]2CO3)ccc1F` (relative stereo) [Example E28, cis-2-(2-(cyclopropylamino)-2-oxoacetyl)-N-(4-fluoro-3-methylphenyl)-3a,7-dimethyl-2,3,3a,4,10,10a-hexahydro-1H,7H-dipyrrolo[3,4-b:3',4'-f][1,4,5]oxathiazocine-8-carboxamide 5,5-dioxide] has an EC50 of under 500 nM. In the case of `Cc1cc(NC(=O)c2c3c(cn2C)S(=O)(=O)N[C@H]2CN(C(=O)C(=O)NC4(C)CC4)C[C@H]2CO3)ccc1F` [Example E18, (3aR,10aR)-N-(4-fluoro-3-methylphenyl)-7-methyl-2-(2-((1-methylcyclopropyl)amino)-2-oxoacetyl)-2,3,3a,4,10,10a-hexahydro-1H,7H-dipyrrolo[3,4-b:3',4'-f][1,4,5]oxathiazocine-8-carboxamide 5,5-dioxide], the EC50 is reported as under 500 nM. `Cc1cc(NC(=O)c2c3c(cn2C)S(=O)(=O)N[C@H]2CN(C(=O)C(=O)NC4CC4)C[C@H]2CS3)ccc1F` [Example E23, (3aR,10aR)-2-(2-(cyclopropylamino)-2-oxoacetyl)-N-(4-fluoro-3-methylphenyl)-7-methyl-2,3,3a,4,10,10a-hexahydro-1H,7H-dipyrrolo[3,4-c:3',4'-g][1,6,2]dithiazocine-8-carboxamide 5,5-dioxide] was tested, and the EC50 was under 500 nM. Compound `Cc1cc(NC(=O)c2c3c(cn2C)S(=O)(=O)N[C@H]2CN(C(=O)C(=O)N[C@@H](C)C(F)(F)F)C[C@H]2CS3)ccc1F` [Example E37, (3aR,10aR)-N-(4-fluoro-3-methylphenyl)-7-methyl-2-(2-oxo-2-(((S)-1,1,1-trifluoropropan-2-yl)amino)acetyl)-2,3,3a,4,10,10a-hexahydro-1H,7H-dipyrrolo[3,4-c:3',4'-g][1,6,2]dithiazocine-8-carboxamide 5,5-dioxide] has an EC50 of under 500 nM. With `Cc1cc(NC(=O)c2c3c(cn2C)S(=O)(=O)N[C@@H]2CN(C(=O)C(=O)NC4CC4)C[C@H]2CO3)ccc1F` (relative stereo) [Example E31, trans-2-(2-(cyclopropylamino)-2-oxoacetyl)-N-(4-fluoro-3-methylphenyl)-7-methyl-2,3,3a,4,10,10a-hexahydro-1H,7H-dipyrrolo[3,4-b:3',4'-f][1,4,5]oxathiazocine-8-carboxamide 5,5-dioxide] the EC50 was under 500 nM. `CNC(=O)C(=O)N1C[C@H]2CSc3c(cn(C)c3C(=O)Nc3ccc(F)c(C)c3)S(=O)(=O)N[C@H]2C1` [Example E35, (3aR,10aR)-N-(4-fluoro-3-methylphenyl)-7-methyl-2-(2-(methylamino)-2-oxoacetyl)-2,3,3a,4,10,10a-hexahydro-1H,7H-dipyrrolo[3,4-c:3',4'-g][1,6,2]dithiazocine-8-carboxamide 5,5-dioxide] showed an EC50 of under 500 nM. For `Cc1cc(NC(=O)c2c3c(cn2C)S(=O)(=O)N[C@H]2CN(C(=O)C(=O)NCC(F)(F)F)C[C@H]2CO3)ccc1F` [Example E17, (3aR,10aR)-N-(4-fluoro-3-methylphenyl)-7-methyl-2-(2-oxo-2-((2,2,2-trifluoroethyl)amino)acetyl)-2,3,3a,4,10,10a-hexahydro-1H,7H-dipyrrolo[3,4-b:3',4'-f][1,4,5]oxathiazocine-8-carboxamide 5,5-dioxide], the EC50 was under 500 nM. Work on `Cc1cc(NC(=O)c2c3c(cn2C)S(=O)(=O)N[C@H]2CN(C(=O)C(=O)N4CC(F)(F)C4)C[C@H]2CS3)ccc1F` [Example E36, (3aR,10aR)-2-(2-(3,3-difluoroazetidin-1-yl)-2-oxoacetyl)-N-(4-fluoro-3-methylphenyl)-7-methyl-2,3,3a,4,10,10a-hexahydro-1H,7H-dipyrrolo[3,4-c:3',4'-g][1,6,2]dithiazocine-8-carboxamide 5,5-dioxide] yielded an EC50 of under 500 nM. `Cc1cc(NC(=O)c2c3c(cn2C)S(=O)(=O)N[C@H]2CN(C(=O)C(=O)NC4(C(F)(F)F)CCC4)C[C@H]2CO3)ccc1F` [Example E33, (3aR,10aR)-N-(4-fluoro-3-methylphenyl)-7-methyl-2-(2-oxo-2-((1-(trifluoromethyl)cyclobutyl)amino)acetyl)-2,3,3a,4,10,10a-hexahydro-1H,7H-dipyrrolo[3,4-b:3',4'-f][1,4,5]oxathiazocine-8-carboxamide 5,5-dioxide] was tested, and the EC50 was under 500 nM. `CNC(=O)C(=O)N1C[C@@H]2COc3c(cn(C)c3C(=O)Nc3ccc(F)c(C)c3)S(=O)(=O)N[C@@H]2C1` (relative stereo) [Example E10, cis N-(4-fluoro-3-methylphenyl)-7-methyl-2-(2-(methylamino)-2-oxoacetyl)-2,3,3a,4,10,10a-hexahydro-1H,7H-dipyrrolo[3,4-b:3',4'-f][1,4,5]oxathiazocine-8-carboxamide 5,5-dioxide] was tested, and the EC50 was under 500 nM. With `Cc1cc(NC(=O)c2c3c(cn2C)S(=O)(=O)N[C@H]2CN(C(=O)C(=O)N[C@H](C)C(F)(F)F)C[C@H]2CS3)ccc1F` [Example E24, (3aR,10aR)-N-(4-fluoro-3-methylphenyl)-7-methyl-2-(2-oxo-2-(((R)-1,1,1-trifluoropropan-2-yl)amino)acetyl)-2,3,3a,4,10,10a-hexahydro-1H,7H-dipyrrolo[3,4-c:3',4'-g][1,6,2] dithiazocine-8-carboxamide 5,5-dioxide] the EC50 was under 500 nM. In the case of `Cc1cc(NC(=O)c2c3c(cn2C)S(=O)(=O)N[C@]2(C)CN(C(=O)C(=O)N[C@H](C)C(F)(F)F)C[C@@H]2CO3)ccc1F` (stereo in doubt) [Example E27, Cis-N-(4-fluoro-3-methylphenyl)-3a,7-dimethyl-2-(2-oxo-2-(((R)-1,1,1-trifluoropropan-2-yl)amino)acetyl)-2,3,3a,4,10,10a-hexahydro-1H,7H-dipyrrolo[3,4-b:3',4'-f][1,4,5] oxathiazocine-8-carboxamide 5,5-dioxide], the EC50 is reported as under 500 nM. In the case of `Cc1cc(NC(=O)c2c3c(cn2C)S(=O)(=O)N[C@H]2CN(C(=O)C(=O)NC(C)(C)C)C[C@H]2CO3)ccc1F` [Example E7, (3aR,10aR)-2-(2-(tert-butylamino)-2-oxoacetyl)-N-(4-fluoro-3-methylphenyl)-7-methyl-2,3,3a,4,10,10a-hexahydro-1H,7H-dipyrrolo[3,4-b:3',4'-f][1,4,5]oxathiazocine-8-carboxamide 5,5-dioxide], the EC50 is reported as under 500 nM. With `Cc1cc(NC(=O)c2c3c(cn2C)S(=O)(=O)N[C@H]2CN(C(=O)C(=O)N4CC(F)(F)C4)C[C@H]2CO3)ccc1F` [Example E29, (3aR,10aR)-2-(2-(3,3-difluoroazetidin-1-yl)-2-oxoacetyl)-N-(4-fluoro-3-methylphenyl)-7-methyl-2,3,3a,4,10,10a-hexahydro-1H,7H-dipyrrolo[3,4-b:3',4'-f][1,4,5]oxathiazocine-8-carboxamide 5,5-dioxide] the EC50 was under 500 nM.
